From the NIST ThermoML archive (doi:10.1016/j.fluid.2017.06.026)
± gives the expanded uncertainty stated by the source.

Conditions: 298.15 K, Ring tensiometer

SMILES | surface tension liquid-gas
CCCCCOP(=O)(OCCCCC)OCCCCC [tripentyl phosphate] | 26.2 ± 3 mN/m
O=P(OCC(F)(F)C(F)(F)C(F)(F)C(F)F)(OCC(F)(F)C(F)(F)C(F)(F)C(F)F)OCC(F)(F)C(F)(F)C(F)(F)C(F)F [tris (1H,1H,5H-octafluoropentyl) phosphate] | 22.9 ± 3 mN/m
